The structures appear in SMILES notation.

The test has as its target T1, Jarid1B (Homo sapiens, UniProt Q9UGL1).
T1 construct: purchased BPS Bioscience or custom made by MolecularThroughput 50121
T1 sequence (Q9UGL1 2-751): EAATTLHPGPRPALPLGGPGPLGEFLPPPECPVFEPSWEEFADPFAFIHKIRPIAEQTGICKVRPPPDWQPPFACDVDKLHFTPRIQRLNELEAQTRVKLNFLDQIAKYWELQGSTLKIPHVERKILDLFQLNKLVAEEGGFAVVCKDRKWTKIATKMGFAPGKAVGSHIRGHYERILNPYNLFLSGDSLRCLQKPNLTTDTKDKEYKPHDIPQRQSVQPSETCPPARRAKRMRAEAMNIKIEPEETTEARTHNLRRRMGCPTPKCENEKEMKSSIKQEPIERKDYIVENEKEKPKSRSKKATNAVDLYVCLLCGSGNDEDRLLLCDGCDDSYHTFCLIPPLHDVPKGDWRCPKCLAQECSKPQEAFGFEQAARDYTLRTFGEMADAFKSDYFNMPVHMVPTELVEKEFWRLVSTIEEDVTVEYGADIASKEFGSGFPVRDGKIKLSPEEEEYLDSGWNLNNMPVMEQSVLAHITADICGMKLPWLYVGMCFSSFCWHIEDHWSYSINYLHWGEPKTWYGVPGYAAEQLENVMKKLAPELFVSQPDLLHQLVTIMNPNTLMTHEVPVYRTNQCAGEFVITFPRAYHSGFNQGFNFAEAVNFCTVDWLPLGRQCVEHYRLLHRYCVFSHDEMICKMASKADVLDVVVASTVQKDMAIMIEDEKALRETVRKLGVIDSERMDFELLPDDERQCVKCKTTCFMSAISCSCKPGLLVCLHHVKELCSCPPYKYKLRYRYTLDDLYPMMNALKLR
Description: Jarid1B in vitro enzyme inhibition assay (TR-FRET). It counts as biochemical. From the text:
This assay determines the ability of a test compound to inhibit Jarid1A, Jarid1B, and JMJD2C demethylase activity. Baculovirus expressed Jarid1A (GenBank Accession #NM_001042603, AA1-1090) was purchased from BPS Bioscience (Cat#50110). Baculovirus expressed Jarid1B (GenBank Accession #NM_006618, AA 2-751) was purchased from BPS Bioscience (Cat #50121) or custom made by MolecularThroughput. Baculovirus expressed JMJD2C (GenBank Accession #BC143571, AA 2-372) was purchased from BPS Bioscience (Cat#50105).
The ability of test compounds to inhibit the activity of Jarid1B was determined in 384-well plate format under the following reaction conditions: 0.8 nM Jarid1B, 300 nM H3K4me3-biotin labeled peptide (Anaspec cat #64357), 2 μM alpha-ketoglutaric acid in assay buffer of 50 mM HEPES, pH7.3, 0.005% Brij35, 0.5 mM TCEP, 0.2 mg/ml BSA, 50 μM sodium L-ascorbate, and 2 μM ammonium iron(II) sulfate. Reaction product was determined quantitatively by TR-FRET after the addition of detection reagent Phycolink Streptavidin-allophycocyanin (Prozyme) and Europium-anti-mono-or di-methylated histone H3 lysine 4 (H3K4me1-2) antibody (PerkinElmer) in the presence of 5 mM EDTA in LANCE detection buffer (PerkinElmer) at a final concentration of 25 nM and 1 nM, respectively.
The assay reaction was initiated by the following: 2 μl of the mixture of 900 nM H3K4me3-biotin labeled peptide and 6 μM alpha-ketoglutaric acid with 2 μl of 11-point serial diluted inhibitor in 3% DMSO was added to each well of the plate, followed by the addition of 2 μl of 2.4 nM Jarid1B to initiate the reaction. The reaction mixture was incubated at room temperature for 30 minutes, and terminated by the addition of 6 μl of 5 mM EDTA in LANCE detection buffer containing 50 nM Phycolink Streptavidin-allophycocyanin and 2 nM Europium-anti-H3K4me1-2 antibody. Plates were read by EnVisionMultilabel Reader in TR-FRET mode (excitation at 320 nm, emission at 615 nm and 665 nm) after 1 hour incubation at room temperature. A ratio was calculated (665/615) for each well and fitted to determine inhibition constant (IC50).
Regarding `Oc1nc(Oc2cccc(C(F)(F)F)c2)nc2cnccc12` [Example 52, 2-[3-(trifluoromethyl)phenoxy]pyrido[3,4-d]pyrimidin-4-ol], the IC50 was no more than 100 nM. Regarding `CN(C)c1ccc(Oc2nc(O)c3ccncc3n2)cc1` [Example 59, 2-[4-(dimethylamino)phenoxy]pyrido[3,4-d]pyrimidin-4-ol], the IC50 is no more than 100 nM. For `CCC(C)Oc1nc(O)c2ccncc2n1` (centres unmarked) [Example 9, 2-butan-2-yloxy-3H-pyrido[3,4-d]pyrimidin-4-one] the value was 1000 to 10000 nM; for `Cn1cnc(-c2nccc3c(O)nc(OCC4CCOCC4)nc23)c1` [Example 102, 8-(1-methyl-1H-imidazol-4-yl)-2-(oxan-4-ylmethoxy)pyrido[3,4-d]pyrimidin-4-ol], 100 to 1000 nM. For `Oc1nc(Oc2ccc(Cl)cc2)nc2cnccc12` [Example 49, 2-(4-chlorophenoxy)pyrido[3,4-d]pyrimidin-4-ol] the value was no more than 100 nM.

Molecule `Cn1cnc(-c2nccc3c(O)nc(OCc4ccc(F)cc4)nc23)c1` [Example 71, 2-[(4-fluorobenzyl)oxy]-8-(1-methyl-1H-imidazol-4-yl)pyrido[3,4-d]pyrimidin-4-ol] registered an IC50 of no more than 100 nM. For `CCOc1nc(O)c2ccnc(-c3cn(C)cn3)c2n1` [Example 69, 2-ethoxy-8-(1-methyl-1H-imidazol-4-yl)pyrido[3,4-d]pyrimidin-4-ol], the IC50 was no more than 100 nM. For `COc1ccc(Oc2nc(O)c3ccncc3n2)cc1F` [Example 53, 2-(3-fluoro-4-methoxyphenoxy)pyrido[3,4-d]pyrimidin-4-ol] the value was no more than 100 nM; for `COc1ccc(Oc2nc(O)c3ccncc3n2)cc1OC` [Example 38, 2-(3,4-dimethoxyphenoxy)pyrido[3,4-d]pyrimidin-4-ol], no more than 100 nM; for `COCCn1cc(Oc2nc(O)c3ccncc3n2)cn1` [Example 64, 2-{[1-(2-methoxyethyl)-1H-pyrazol-4-yl]oxy}pyrido[3,4-d]pyrimidin-4-ol], no more than 100 nM. For `Cn1cnc(-c2nccc3c(O)nc(OCc4ccccc4Cl)nc23)c1` [Example 105, 2-[(2-chlorophenyl)methoxy]-8-(1-methyl-1H-imidazol-4-yl)pyrido[3,4-d]pyrimidin-4-ol], the IC50 was no more than 100 nM. For `O=S(=O)(C1CC1)N1CCC(n2cc(Oc3nc(O)c4ccncc4n3)cn2)CC1` [Example 94, 2-[1-(1-cyclopropylsulfonylpiperidin-4-yl)pyrazol-4-yl]oxypyrido[3,4-d]pyrimidin-4-ol] the value was no more than 100 nM. The molecule `COCCCn1cc(Oc2nc(O)c3ccncc3n2)cn1` [Example 65, 2-{[1-(3-methoxypropyl)-1H-pyrazol-4-yl]oxy}pyrido[3,4-d]pyrimidin-4-ol] gave an IC50 of no more than 100 nM. In turn, `O=C(c1ccc(F)cc1)N1CCC(n2cc(Oc3nc(O)c4ccncc4n3)cn2)CC1` [Example 93, (4-fluorophenyl)-[4-[4-(4-hydroxypyrido[3,4-d]pyrimidin-2-yl)oxypyrazol-1-yl]piperidin-1-yl]methanone] had an IC50 of no more than 100 nM.

Molecule `Oc1nc(OCC2CC2)nc2cnccc12` [Example 5, 2-(cyclopropylmethoxy)-3H-pyrido[3,4-d]pyrimidin-4-one] gave an IC50 of 100 to 1000 nM. For `COCCOc1ccc(Oc2nc(O)c3ccnc(-c4cn(C)cn4)c3n2)cc1` [Example 82, 2-[4-(2-methoxyethoxy)phenoxy]-8-(1-methylimidazol-4-yl)pyrido[3,4-d]pyrimidin-4-ol] the value was no more than 100 nM; for `CCCn1cc(Oc2nc(O)c3ccncc3n2)cn1` [Example 54, 2-(1-propylpyrazol-4-yl)oxypyrido[3,4-d]pyrimidin-4-ol], no more than 100 nM; for `Oc1nc(Oc2ccnc(N3CCOCC3)c2)nc2cnccc12` [Example 97, 2-(2-morpholin-4-ylpyridin-4-yl)oxypyrido[3,4-d]pyrimidin-4-ol], no more than 100 nM.

Take `Oc1nc(Oc2cnn(Cc3ccc(F)cc3)c2)nc2cnccc12` [Example 86, 2-[1-(4-fluorobenzyl)pyrazol-4-yl]oxypyrido[3,4-d]pyrimidin-4-ol]: the IC50 was no more than 100 nM.

`O=C(C1CC1)N1CCC(n2cc(Oc3nc(O)c4ccncc4n3)cn2)CC1` [Example 92, cyclopropyl-[4-[4-(4-hydroxypyrido[3,4-d]pyrimidin-2-yl)oxypyrazol-1-yl]piperidin-1-yl]methanone] yielded an IC50 of no more than 100 nM. Consider `CCn1ncc2ccc(Oc3nc(O)c4ccnc(-c5cn(C)cn5)c4n3)cc21` [Example 84, 2-(1-ethylindazol-6-yl)oxy-8-(1-methylimidazol-4-yl)pyrido[3,4-d]pyrimidin-4-ol], for which the half-inhibitory concentration (IC50) is no more than 100 nM.

Molecule `CC(=O)N1CCC(n2cc(Oc3nc(O)c4ccncc4n3)cn2)CC1` [Example 90, 1-[4-[4-(4-hydroxypyrido[3,4-d]pyrimidin-2-yl)oxypyrazol-1-yl]piperidin-1-yl]ethanone] registered an IC50 of no more than 100 nM.

For the molecule `OCCOc1nc(O)c2ccncc2n1` [Example 3, 2-(2-hydroxyethoxy)pyrido[3,4-d]pyrimidin-4-ol], the IC50 was in the range of 100 to 1000 nM.

In turn, `Cn1cnc(-c2nccc3c(O)nc(Oc4ccc5cnn(C)c5c4)nc23)c1` [Example 83, 8-(1-methylimidazol-4-yl)-2-(1-methylindazol-6-yl)oxypyrido[3,4-d]pyrimidin-4-ol] came in with an IC50 of no more than 100 nM. The same measure for `CC(C)c1cccc(Oc2nc(O)c3ccncc3n2)c1` [Example 39, 2-(3-propan-2-ylphenoxy)pyrido[3,4-d]pyrimidin-4-ol]: no more than 100 nM; for `Oc1nc(Oc2cccc(F)c2)nc2cnccc12` [Example 40, 2-(3-fluorophenoxy)pyrido[3,4-d]pyrimidin-4-ol]: no more than 100 nM.

For `O=S(=O)(c1ccccc1)N1CCC(n2cc(Oc3nc(O)c4ccncc4n3)cn2)CC1` [Example 95, 2-[1-[1-(benzenesulfonyl)piperidin-4-yl]pyrazol-4-yl]oxypyrido[3,4-d]pyrimidin-4-ol], the IC50 is no more than 100 nM. `CCCc1cccc(Oc2nc(O)c3ccncc3n2)c1` [Example 58, 2-(3-propylphenoxy)pyrido[3,4-d]pyrimidin-4-ol] showed a concentration for half-maximal inhibition (IC50) of no more than 100 nM.

`Cn1cnc(-c2nccc3c(O)nc(OCC(F)F)nc23)c1` [Example 77, 2-(2,2-difluoroethoxy)-8-(1-methylimidazol-4-yl)pyrido[3,4-d]pyrimidin-4-ol] gave an IC50 of no more than 100 nM.

Take `Oc1nc(Oc2cccc(Cl)c2)nc2cnccc12` [Example 41, 2-(3-chlorophenoxy)pyrido[3,4-d]pyrimidin-4-ol]: the IC50 was no more than 100 nM.

In turn, `Oc1nc(Oc2ccc(F)c(F)c2)nc2cnccc12` [Example 37, 2-(3,4-difluorophenoxy)pyrido[3,4-d]pyrimidin-4-ol] displayed an IC50 of no more than 100 nM. The same measure for `COc1nc(O)c2ccnc(-c3cn(C)cn3)c2n1` [Example 68, 2-methoxy-8-(1-methyl-1H-imidazol-4-yl)pyrido[3,4-d]pyrimidin-4-ol]: no more than 100 nM; for `Oc1nc(Oc2cnn(C3CCNCC3)c2)nc2cnccc12` [Example 89, 2-(1-piperidin-4-ylpyrazol-4-yl)oxypyrido[3,4-d]pyrimidin-4-ol]: no more than 100 nM. For `COc1nc(O)c2ccncc2n1` [Example 8, 2-methoxypyrido[3,4-d]pyrimidin-4-ol] the value was 100 to 1000 nM. With `Oc1nc(Oc2cccc(F)c2F)nc2cnccc12` [Example 42, 2-(2,3-difluorophenoxy)pyrido[3,4-d]pyrimidin-4-ol], the IC50 lay in the range of 100 to 1000 nM.

For the origin of these results see patent US10526327B2, “Histone demethylase inhibitors” (CELGENE QUANTICEL RESEARCH, INC., priority 2013, dated 2020).
